Reference: PubChem BioAssay (NCI)
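96-well plates; 48 h exposure; 5 concentrations. Endpoints by linear interpolation between flanking doses. Not reached: highest tested concentration assigned. The concentration for full growth arrest is given as TGI.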 Where a SMILES comes first, the peptide text is derived from it.

Tests used:
Test in all cases: growth of human tumour cells (NCI), 48 h
[1] = system: 786-0 renal
[2] = system: A498 renal
[3] = system: A549 NSCLC
[4] = system: ACHN renal
[5] = system: BT-549 breast
[6] = system: CAKI-1 renal
[7] = system: CCRF-CEM leukemia
[8] = system: COLO 205 colon
[9] = system: DU-145 prostate
[10] = system: EKVX NSCLC
[11] = system: HCC-2998 colon
[12] = system: HCT-116 colon
[13] = system: HCT-15 colon
[14] = system: HL-60(TB) leukemia
[15] = system: HOP-62 NSCLC
[16] = system: HOP-92 NSCLC
[17] = system: HS 578T breast
[18] = system: HT29 colon
[19] = system: K-562 leukemia
[20] = system: KM12 colon
[21] = system: LOX IMVI melanoma
[22] = system: MALME-3M melanoma
[23] = system: MCF7 breast
[24] = system: MDA-MB-231 breast
[25] = system: MDA-MB-435
[26] = system: MDA-N
[27] = system: MOLT-4 leukemia
[28] = system: NCI-H226 lung
[29] = system: NCI-H23 lung
[30] = system: NCI-H460 lung
[31] = system: NCI/ADR-RES ovarian
[32] = system: OVCAR-3 ovarian
[33] = system: OVCAR-4 ovarian
[34] = system: OVCAR-5 ovarian
[35] = system: OVCAR-8 ovarian
[36] = system: PC-3 prostate
[37] = system: RPMI-8226 leukemia
[38] = system: RXF 393 renal
[39] = system: SF-268 CNS
[40] = system: SF-295 CNS
[41] = system: SF-539 CNS
[42] = system: SK-MEL-2 melanoma
[43] = system: SK-MEL-5 melanoma
[44] = system: SK-OV-3 ovarian
[45] = system: SN12C renal
[46] = system: SNB-19 CNS
[47] = system: SNB-75 CNS
[48] = system: SW-620 colon
[49] = system: T-47D breast
[50] = system: TK-10 renal
[51] = system: U251 CNS
[52] = system: UACC-257 melanoma
[53] = system: UACC-62 melanoma
[54] = system: UO-31 renal
[55] = system: IGROV1 ovarian
[56] = system: M14 melanoma
[57] = system: NCI-H522 lung
[58] = system: SK-MEL-28 melanoma
[59] = system: SR leukemia

Measured: TGI

COc1ccc(/C(=N/OCCCC(=O)O)c2cccs2)cc1
> 100 µM: [1] | [2] | [3] | [4] | [5] | [6] | [7] | [8] | [9] | [10] | [11] | [12] | [13] | [14] | [15] | [16] | [17] | [18] | [19] | [20] | [21] | [22] | [23] | [24] | [25] | [26] | [27] | [28] | [29] | [30] | [31] | [32] | [33] | [34] | [35] | [36] | [37] | [38] | [39] | [40] | [41] | [42] | [43] | [44] | [45] | [46] | [47] | [48] | [49] | [50] | [51] | [52] | [53] | [54]

COc1ccc2[nH]c3c(c2c1)CCc1c(OC)cccc1-3
> 100 µM: [1] | [2] | [3] | [4] | [5] | [6] | [7] | [8] | [9] | [10] | [11] | [12] | [13] | [15] | [16] | [17] | [18] | [55] | [19] | [20] | [21] | [56] | [22] | [23] | [24] | [25] | [26] | [27] | [28] | [29] | [30] | [57] | [31] | [32] | [33] | [34] | [35] | [36] | [37] | [39] | [40] | [42] | [58] | [43] | [44] | [45] | [46] | [47] | [59] | [48] | [49] | [50] | [51] | [52] | [53] | [54]

Nc1ccc2nc3n(c2c1)C(c1c(F)cccc1F)SC3 (stereo not given)
> 100 µM: [1] | [2] | [3] | [4] | [5] | [6] | [7] | [8] | [9] | [10] | [11] | [12] | [13] | [14] | [15] | [17] | [18] | [55] | [19] | [20] | [21] | [56] | [22] | [23] | [24] | [25] | [26] | [27] | [29] | [30] | [57] | [31] | [32] | [33] | [34] | [35] | [36] | [37] | [38] | [39] | [40] | [41] | [42] | [58] | [43] | [44] | [45] | [46] | [47] | [59] | [48] | [49] | [50] | [51] | [52] | [53] | [54]

COc1ccc(CC2Cc3ccccc3CC(=O)N2)cc1OC (stereo not given)
54.1 µM: [43]
58.5 µM: [49]
> 100 µM: [1] | [2] | [3] | [4] | [5] | [6] | [7] | [8] | [9] | [10] | [11] | [12] | [13] | [14] | [15] | [16] | [17] | [18] | [55] | [19] | [20] | [21] | [56] | [22] | [23] | [24] | [25] | [26] | [28] | [29] | [30] | [31] | [32] | [33] | [34] | [35] | [36] | [40] | [41] | [42] | [58] | [44] | [45] | [46] | [47] | [59] | [48] | [50] | [51] | [52] | [53] | [54]
65 µM: [27]

COC(=O)c1ccc(NCC2=CC(=O)C=CC2=O)cc1O
27.9 µM: [50]
44 µM: [38]
36.6 µM: [29]
> 100 µM: [3] | [7] | [17] | [19] | [27] | [36] | [39] | [42] | [58] | [59] | [48] | [51]
24.7 µM: [32]
25.1 µM: [5]
38.6 µM: [18]
34.5 µM: [13] | [15]
47.1 µM: [49]
43.4 µM: [30]
30.6 µM: [52]
82.9 µM: [25]
44.7 µM: [28]
34.7 µM: [24]
76.3 µM: [23]
30.3 µM: [33]
32.8 µM: [2] | [6]
66.5 µM: [45]
47 µM: [31]
30.4 µM: [53]
31.6 µM: [10]
33.8 µM: [12]
42.9 µM: [47]
37.5 µM: [21]
36.9 µM: [34]
32.3 µM: [40]
9.27 µM: [16]
26.8 µM: [4]
31.4 µM: [1] | [8]
41.6 µM: [55]
35.8 µM: [26]
42.5 µM: [44]
80.1 µM: [43]
48.3 µM: [46]
50.6 µM: [56]
30.8 µM: [35]
29 µM: [9]
25.4 µM: [54]
28.6 µM: [22]
28 µM: [41]

CC(=O)NC(CS)C(=O)NC(CO)C(=O)NC(CO)C(=O)NC(Cc1c[nH]c2ccccc12)C(=O)N1CCCC1C(=O)NC(CO)C(=O)NC(Cc1c[nH]c2ccccc12)C(=O)NC(Cc1c[nH]cn1)C(=O)NC(CO)C(=O)NC(Cc1c[nH]c2ccccc12)C(=O)NCC(=O)NCC(=O)NC(C)C(=O)NC(CCC(N)=O)C(=O)NC(CCCCN)C(=O)NC(C)C(=O)NC(CCCNC(=N)N)C(=O)NC(CCCCN)C(N)=O (stereo not given) (Ac-CSSWPSWHSWGGAQKARK-NH2; configuration not given here)
27.7 µM: [51]
48.8 µM: [29]
24 µM: [53]
28.2 µM: [8]
> 50 µM: [2] | [3] | [4] | [7] | [9] | [10] | [12] | [13] | [15] | [16] | [17] | [18] | [55] | [21] | [56] | [23] | [25] | [26] | [27] | [28] | [57] | [31] | [32] | [33] | [34] | [35] | [36] | [37] | [40] | [41] | [42] | [44] | [45] | [46] | [48] | [50] | [54]
20.3 µM: [22]
32.1 µM: [20]
34.5 µM: [14]
42.1 µM: [47]
24.9 µM: [38]
19.6 µM: [52]
19.5 µM: [1]
19.7 µM: [24]
22.4 µM: [43]
28.5 µM: [19] | [49]
41 µM: [5]
33.6 µM: [6]
35.5 µM: [30]
20.9 µM: [58]
43.4 µM: [59]
49.6 µM: [39]

COP(=O)(/C=C/C(NC(=O)C(Cl)(Cl)Cl)c1ccccc1)OC (stereo not given)
> 100 µM: [1] | [2] | [3] | [4] | [5] | [6] | [8] | [9] | [10] | [11] | [12] | [13] | [14] | [15] | [16] | [17] | [18] | [55] | [19] | [20] | [21] | [56] | [22] | [23] | [24] | [25] | [26] | [27] | [28] | [29] | [30] | [57] | [31] | [32] | [33] | [34] | [35] | [36] | [37] | [38] | [39] | [40] | [42] | [58] | [43] | [44] | [45] | [46] | [47] | [48] | [49] | [50] | [51] | [52] | [53] | [54]
